Laboratory results reported in patent publication US10159672B2 (PARION SCIENCES, INC., priority 2011, dated 2018).

Tests used:
ENaC = target: T1, ENaC (Canis lupus familiaris, UniProt A0A8I3MKE6+A0A8I3Q679+Q95165); test: In vitro sodium channel blocking activity and reversibility (short circuit current, Ussing chambers); type: cell-based, canine
T1 construct: using primary cultures of canine bronchial epithelial cells; endogenous in cells; host or cells: primary canine bronchial epithelial cells cultured at air-liquid interface
T1 sequence (A0A8I3Q679 1-649): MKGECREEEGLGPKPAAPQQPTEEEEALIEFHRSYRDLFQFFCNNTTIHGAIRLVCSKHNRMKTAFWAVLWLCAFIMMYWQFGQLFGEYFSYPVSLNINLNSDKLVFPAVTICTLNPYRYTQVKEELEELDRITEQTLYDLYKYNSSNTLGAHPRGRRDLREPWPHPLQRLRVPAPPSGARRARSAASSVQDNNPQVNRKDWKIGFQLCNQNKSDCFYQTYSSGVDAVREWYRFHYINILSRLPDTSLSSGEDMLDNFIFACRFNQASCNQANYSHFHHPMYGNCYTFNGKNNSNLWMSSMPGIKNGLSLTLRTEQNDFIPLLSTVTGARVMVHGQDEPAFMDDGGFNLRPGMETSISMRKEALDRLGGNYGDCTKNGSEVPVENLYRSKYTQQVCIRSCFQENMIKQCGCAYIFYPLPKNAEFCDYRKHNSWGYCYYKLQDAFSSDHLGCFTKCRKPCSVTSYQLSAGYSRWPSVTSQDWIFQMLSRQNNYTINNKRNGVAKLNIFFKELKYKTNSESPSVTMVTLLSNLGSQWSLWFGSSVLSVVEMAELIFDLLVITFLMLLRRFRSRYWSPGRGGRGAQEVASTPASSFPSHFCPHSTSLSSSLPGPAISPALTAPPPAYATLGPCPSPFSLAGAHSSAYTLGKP
T1 sequence (Q95165 1-641): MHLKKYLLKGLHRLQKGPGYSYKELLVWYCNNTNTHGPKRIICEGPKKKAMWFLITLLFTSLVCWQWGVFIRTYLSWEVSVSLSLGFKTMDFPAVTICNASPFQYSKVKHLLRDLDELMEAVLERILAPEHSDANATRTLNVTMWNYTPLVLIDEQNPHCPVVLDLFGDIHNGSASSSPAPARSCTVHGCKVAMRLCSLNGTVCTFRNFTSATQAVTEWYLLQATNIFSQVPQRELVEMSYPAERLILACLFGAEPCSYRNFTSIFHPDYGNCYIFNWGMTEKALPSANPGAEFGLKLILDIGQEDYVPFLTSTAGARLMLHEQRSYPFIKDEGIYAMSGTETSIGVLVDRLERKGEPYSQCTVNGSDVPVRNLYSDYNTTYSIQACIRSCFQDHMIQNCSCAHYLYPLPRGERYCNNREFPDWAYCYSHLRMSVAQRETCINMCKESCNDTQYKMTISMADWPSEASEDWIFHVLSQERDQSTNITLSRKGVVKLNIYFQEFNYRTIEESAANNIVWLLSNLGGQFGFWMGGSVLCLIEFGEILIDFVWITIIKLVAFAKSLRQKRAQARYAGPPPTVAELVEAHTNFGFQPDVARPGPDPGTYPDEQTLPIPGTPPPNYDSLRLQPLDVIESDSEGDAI
T1 sequence (A0A8I3MKE6 1-646): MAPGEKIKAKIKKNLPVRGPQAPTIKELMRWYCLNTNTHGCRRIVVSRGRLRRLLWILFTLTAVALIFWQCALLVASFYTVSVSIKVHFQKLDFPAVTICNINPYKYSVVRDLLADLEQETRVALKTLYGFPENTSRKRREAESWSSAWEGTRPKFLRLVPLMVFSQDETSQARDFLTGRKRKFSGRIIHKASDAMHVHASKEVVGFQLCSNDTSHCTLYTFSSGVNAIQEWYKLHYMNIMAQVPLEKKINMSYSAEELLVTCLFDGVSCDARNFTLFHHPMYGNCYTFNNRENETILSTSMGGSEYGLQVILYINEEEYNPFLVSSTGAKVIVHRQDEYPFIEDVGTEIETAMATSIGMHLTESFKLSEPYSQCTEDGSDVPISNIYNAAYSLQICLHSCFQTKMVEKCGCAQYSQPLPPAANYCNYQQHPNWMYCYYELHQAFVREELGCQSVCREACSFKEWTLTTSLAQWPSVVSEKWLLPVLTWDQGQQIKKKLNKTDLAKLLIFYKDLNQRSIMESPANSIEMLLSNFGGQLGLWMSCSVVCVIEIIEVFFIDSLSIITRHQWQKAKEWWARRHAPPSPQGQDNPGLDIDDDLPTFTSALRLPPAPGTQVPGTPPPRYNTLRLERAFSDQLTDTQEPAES
Experimental: One assay used to assess mechanism of action and/or potency of the compounds of the present invention involves the determination of lumenal drug inhibition of airway epithelial sodium currents measured under short circuit current (ISC) using airway epithelial monolayers mounted in Ussing chambers. Cells obtained from freshly excised human, dog, sheep or rodent airways are seeded onto porous 0.4 micron Snapwell™ Inserts (CoStar), cultured at air-liquid interface (ALI) conditions in hormonally defined media, and assayed for sodium transport activity (ISC) while bathed in Krebs Bicarbonate Ringer (KBR) in Using chambers. All test drug additions are to the lumenal bath with half-log dose addition protocols (from 1×10^−11 M to 3×10^−5 M), and the cumulative change in ISC (inhibition) recorded. All drugs are prepared in dimethyl sulfoxide as stock solutions at a concentration of 1×10^−2 M and stored at −20° C. […] After the maximal concentration ([…]) is administered, the lumenal bath is exchanged three times with fresh drug-free KBR solution, and the resultant ISC measured after each wash for approximately 5 minutes in duration. Reversibility is defined as the percent return to the baseline value for sodium current after the third wash. All data from the voltage clamps are collected via a computer interface and analyzed off-line.
Dose-effect relationships for all compounds are considered and analyzed by the Prism 3.0 program. […] The potency of the sodium channel blocking activity of representative compounds in freshly excised cell from canine airways is shown in Table 2.

[1] = tested on: Canine Bronchial Epithelial Cells; test: Durability of retention of airway surface liquid; type: cell-based

CN(C)C(=O)[C@H](CCCCNC(=N)N)NC(=O)[C@H](CCc1ccc(CCCCNC(=N)NC(=O)c2nc(Cl)c(N)nc2N)cc1)N(C)C [Compound I, 3,5-diamino-6-chloro-N-(N-(4-(4-((S)-3-(dimethylamino)-4-((S)-1-(dimethylamino)-6-guanidino-1-oxohexan-2-ylamino)-4-oxobutyl)phenyl)butyl)carbamimidoyl)pyrazine-2-carboxamide]
Potency compared to amiloride (ENaC; Ussing chamber, primary cultures of canine bronchial epithelial cells): > 100 fold | IC50 (ENaC; canine bronchial epithelial cells, n=5, read-out: Potency (IC50) on Canine Bronchial Epithelial Cells): 5.3 nM | Emax (ENaC; with 3 washes, n=3, read-out: Reversal of Maximal Effect on Canine Bronchial Epithelial Cells (effect lost)): 6.8 ± 5.1% | Durability of Retention of Airway Surface Liquid, fluid retained ([1]; 8 hours after drug delivery, n=3): 94±5% | Durability of Retention of Airway Surface Liquid, fluid retained ([1]; 24 hours after drug delivery, n=2): 56±6%
